Laboratory results published in BindingDB's records for doi:10.1124/mol.107.035832 (Nih, 2007).

molecular target: T1, Serine/threonine-protein kinase Chk2 [209-531,Q209M] (Homo sapiens, UniProt O96017, Q209M); experiment: In Vitro Protein Kinase Assay; settings: pH 7.5; 30 °C
T1 construct: 209-531
Protocol: Recombinant Chk2 was incubated with either histone H1 (or GST-Cdc25C) in reaction buffer, and incubated at 30 deg C for indicated times. For the drug inhibition experiments, samples were coincubated with drug during the reactions. Reactions were stopped by adding sample buffer, and samples were boiled for 5 min. Reaction products were separated by 4-20% SDS-PAGE. Chk2 protein kinase activity, measured as 32P incorporation into Chk2, histone H1 (or GST-Cdc25C), was determined using a PhosphorImager (GE Healthcare, Chalfont St. Giles, Buckinghamshire, UK). Densitometry was performed using Image-Quant.

T1 sequence (O96017 209-531 Q209M): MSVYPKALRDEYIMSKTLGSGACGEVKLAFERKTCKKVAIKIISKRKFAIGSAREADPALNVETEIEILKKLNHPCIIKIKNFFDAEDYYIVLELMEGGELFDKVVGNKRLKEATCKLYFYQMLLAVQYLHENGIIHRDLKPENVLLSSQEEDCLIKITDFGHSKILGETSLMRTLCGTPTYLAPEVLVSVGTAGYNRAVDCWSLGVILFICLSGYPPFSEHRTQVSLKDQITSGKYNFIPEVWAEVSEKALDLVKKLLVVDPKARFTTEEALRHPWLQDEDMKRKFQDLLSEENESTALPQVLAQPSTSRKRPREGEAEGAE

In order of falling IC50:
1. NC1=NC(=O)C(=C2CCNC(=O)c3[nH]ccc32)N1 [B722657K110]  0.42 µM
2. CC(=NN=C(N)N)c1ccc(NC(=O)Nc2ccc(C(C)=NN=C(N)N)cc2)cc1 [diacetyldiphenylurea bisguanylhydrazone]  0.24 µM

molecular target: T1, Serine/threonine-protein kinase Chk2 [209-531,Q209M]; experiment: IMAP High-Throughput Screening; settings: pH 7.2; 23 °C
Protocol: The IMAP Screening Express Kit (Molecular Devices, Sunnyvale, CA) was used for the high-throughput screening experiments. Compounds from the Developmental Therapeutics Program (DTP) Open Repository were solubilized and diluted in DMSO and initially tested at one concentration in the assay. Active compounds were subsequently titrated at 20 2-fold dilutions. Reactions were performed using recombinant Chk2 with the indicated drug concentrations in reaction buffer in 384-well black microplate (Greiner Bio-One, Longwood, FL)] for 60 min at room temperature. IMAP binding reagent was added to each well, plates were incubated for 30 min at room temperature, and fluorescence polarization was measured using a Tecan Ultra plate reader. Each screening plate contained staurosporine as a positive control.

`CC(=NN=C(N)N)c1ccc(NC(=S)Nc2ccccc2)cc1` [NSC 177940] and `CC(=NN=C(N)N)c1cccc(NC(=S)Nc2cccc(C(C)=NN=C(N)N)c2)c1` [NSC 177941] cannot be ordered by IC50: greater than 20 µM for the first, greater than 20 µM for the second.

Going from `CNC(=O)Nc1ccc(C(C)=NNC(N)=S)cc1` [NSC 377844] to `CC(=NN=C(N)N)c1ccc(NC(=O)Nc2ccc(C(C)=NN=C(N)N)cc2)cc1` [diacetyldiphenylurea bisguanylhydrazone], the IC50 falls from greater than 20 µM to 0.2 µM. The second is the more potent here.

`CC(C=NNC(=N)N)=NNC(=N)N` [NSC 69432 (MGBG)] and `CC(=NN=C(N)N)c1ccc(C(C)=NN=C(N)N)cc1` [NSC 67931] cannot be ordered by IC50: greater than 20 µM for the first, greater than 20 µM for the second.

For `CC(=NN=C(N)N)c1cccc(NC(=O)Nc2cccc(C(C)=NN=C(N)N)c2)c1` [NSC 177944], the IC50 was greater than 20 µM.
